Measured values published in patent publication US11445724B2, “Insecticidal compounds” (SYNGENTA PARTICIPATIONS AG, priority 2013, dated 2022).

Experiments:
Type in all cases: in vivo
[1] = test system: Diabrotica balteata (Corn root worm); test: Diabrotica balteata (Corn root worm) larval mortality, artificial diet in 24-well MTP; conditions: 120 h, application rate 200 ppm (concentration in well 18 ppm), L2 larvae, larval mortality after 5 days
[2] = test system: Tetranychus urticae (Two-spotted spider mite); test: Tetranychus urticae (Two-spotted spider mite) mortality, sprayed bean leaf discs; conditions: foliar, 192 h, 200 ppm spray on bean leaf discs, mixed ages, egg, larval and adult mortality after 8 days
[3] = test system: Thrips tabaci (Onion thrips); test: Thrips tabaci (Onion thrips) mortality, sprayed sunflower leaf discs; conditions: foliar, 168 h, 200 ppm spray on sunflower leaf discs, mixed ages, mortality after 7 days
[4] = test system: Spodoptera littoralis (Egyptian cotton leafworm); test: Spodoptera littoralis (Egyptian cotton leafworm) mortality, sprayed cotton leaf discs; conditions: foliar, 72 h, 200 ppm spray on cotton leaf discs, L1 larvae, mortality 3 DAT
[5] = test system: Plutella xylostella (Diamond back moth); test: Plutella xylostella (Diamond back moth) larval mortality, artificial diet in 24-well MTP; conditions: 144 h, application rate 200 ppm (concentration in well 18 ppm), L2 larvae, larval mortality after 6 days
[6] = test system: Myzus persicae (Green peach aphid); test: Myzus persicae (Green peach aphid) mortality, test compounds mixed with Sucrose solution under Parafilm; conditions: 120 h, 12.5 ppm in Sucrose solution, infested pea seedlings on Parafilm, mortality 5 days after infestation
[7] = test system: Myzus persicae (Green peach aphid); test: Myzus persicae (Green peach aphid) mortality, sprayed sunflower leaf discs; conditions: foliar, 144 h, 200 ppm spray on sunflower leaf discs, mixed ages, mortality 6 DAT

COc1c(NC(=O)c2ccc(C(F)(F)F)cc2)cccc1C(=O)Nc1c(Cl)cc(C(F)(C(F)(F)F)C(F)(F)F)cc1OC(F)F [Compound 89]
≥ 80%: pest or weed control at 200 ppm [1] | pest or weed control at 200 ppm [2] | pest or weed control at 200 ppm [3] | pest or weed control at 200 ppm [4] | pest or weed control at 200 ppm [5] | pest or weed control at 12.5 ppm [6] | pest or weed control at 200 ppm [7]

COc1c(NC(=O)c2ccc(F)cc2)cccc1C(=O)Nc1c(Cl)cc(C(F)(C(F)(F)F)C(F)(F)F)cc1OC(F)F [Compound 93]
≥ 80%: pest or weed control at 200 ppm [1] | pest or weed control at 200 ppm [2] | pest or weed control at 200 ppm [3] | pest or weed control at 200 ppm [4] | pest or weed control at 200 ppm [5] | pest or weed control at 12.5 ppm [6] | pest or weed control at 200 ppm [7]

COc1c(C(=O)C(C(C)=O)c2c(Br)cc(C(F)(C(F)(F)F)C(F)(F)F)cc2OC(F)F)cccc1N(C)C(=O)c1ccncc1 (stereo not shown) [Compound 99]
≥ 80%: pest or weed control at 200 ppm [1] | pest or weed control at 200 ppm [2] | pest or weed control at 200 ppm [3] | pest or weed control at 200 ppm [4] | pest or weed control at 200 ppm [5] | pest or weed control at 12.5 ppm [6] | pest or weed control at 200 ppm [7]

Cc1cc(C(F)(C(F)(F)F)C(F)(F)F)cc(OC(F)F)c1NC(=O)c1cccc(NC(=O)c2ccncc2)c1F [Compound 100]
≥ 80%: pest or weed control at 200 ppm [1] | pest or weed control at 200 ppm [2] | pest or weed control at 200 ppm [3] | pest or weed control at 200 ppm [4] | pest or weed control at 200 ppm [5] | pest or weed control at 12.5 ppm [6] | pest or weed control at 200 ppm [7]

CCN(C(=O)c1ccncc1)c1cccc(C(=O)Nc2c(C)cc(C(F)(C(F)(F)F)C(F)(F)F)cc2OC(F)F)c1F [Compound 101]
≥ 80%: pest or weed control at 200 ppm [1] | pest or weed control at 200 ppm [2] | pest or weed control at 200 ppm [3] | pest or weed control at 200 ppm [4] | pest or weed control at 200 ppm [5] | pest or weed control at 12.5 ppm [6] | pest or weed control at 200 ppm [7]

COc1c(C(=O)Nc2c(Br)cc(C(F)(C(F)(F)F)C(F)(F)F)cc2OC(F)F)cccc1N(C)C(=O)c1ccncc1 [Compound 102]
≥ 80%: pest or weed control at 200 ppm [1] | pest or weed control at 200 ppm [2] | pest or weed control at 200 ppm [3] | pest or weed control at 200 ppm [4] | pest or weed control at 200 ppm [5] | pest or weed control at 12.5 ppm [6] | pest or weed control at 200 ppm [7]

CCN(C(=O)c1ccc([N+](=O)[O-])cc1)c1cccc(C(=O)Nc2c(Br)cc(C(F)(C(F)(F)F)C(F)(F)F)cc2OC(F)F)c1F [Compound 103]
≥ 80%: pest or weed control at 200 ppm [1] | pest or weed control at 200 ppm [2] | pest or weed control at 200 ppm [3] | pest or weed control at 200 ppm [4] | pest or weed control at 200 ppm [5] | pest or weed control at 12.5 ppm [6] | pest or weed control at 200 ppm [7]

CCN(C(=O)c1cccc(F)c1F)c1cccc(C(=O)Nc2c(Br)cc(C(F)(C(F)(F)F)C(F)(F)F)cc2OC(F)F)c1F [Compound 108]
≥ 80%: pest or weed control at 200 ppm [1] | pest or weed control at 200 ppm [2] | pest or weed control at 200 ppm [3] | pest or weed control at 200 ppm [4] | pest or weed control at 200 ppm [5] | pest or weed control at 12.5 ppm [6] | pest or weed control at 200 ppm [7]

CCN(C(=O)c1ccc(F)cc1F)c1cccc(C(=O)Nc2c(Br)cc(C(F)(C(F)(F)F)C(F)(F)F)cc2OC(F)F)c1F [Compound 109]
≥ 80%: pest or weed control at 200 ppm [1] | pest or weed control at 200 ppm [2] | pest or weed control at 200 ppm [3] | pest or weed control at 200 ppm [4] | pest or weed control at 200 ppm [5] | pest or weed control at 12.5 ppm [6] | pest or weed control at 200 ppm [7]

CCN(C(=O)c1ccccc1)c1cccc(C(=O)Nc2c(Cl)cc(C(F)(C(F)(F)F)C(F)(F)F)cc2OC(F)F)c1F [Compound 119]
≥ 80%: pest or weed control at 200 ppm [1] | pest or weed control at 200 ppm [2] | pest or weed control at 200 ppm [3] | pest or weed control at 200 ppm [4] | pest or weed control at 200 ppm [5] | pest or weed control at 12.5 ppm [6] | pest or weed control at 200 ppm [7]

CCN(C(=O)c1ccc(F)cc1)c1cccc(C(=O)Nc2c(Cl)cc(C(F)(C(F)(F)F)C(F)(F)F)cc2OC(F)F)c1F [Compound 120]
≥ 80%: pest or weed control at 200 ppm [1] | pest or weed control at 200 ppm [2] | pest or weed control at 200 ppm [3] | pest or weed control at 200 ppm [4] | pest or weed control at 200 ppm [5] | pest or weed control at 12.5 ppm [6] | pest or weed control at 200 ppm [7]

CCN(C(=O)c1ccc(F)cc1Cl)c1cccc(C(=O)Nc2c(Cl)cc(C(F)(C(F)(F)F)C(F)(F)F)cc2OC(F)F)c1F [Compound 122]
≥ 80%: pest or weed control at 200 ppm [1] | pest or weed control at 200 ppm [2] | pest or weed control at 200 ppm [3] | pest or weed control at 200 ppm [4] | pest or weed control at 200 ppm [5] | pest or weed control at 12.5 ppm [6] | pest or weed control at 200 ppm [7]

CCN(C(=O)c1ccc(F)cc1)c1cccc(C(=O)Nc2c(Br)cc(C(F)(C(F)(F)F)C(F)(F)F)cc2OC(F)F)c1F [Compound 128]
≥ 80%: pest or weed control at 200 ppm [1] | pest or weed control at 200 ppm [2] | pest or weed control at 200 ppm [3] | pest or weed control at 200 ppm [4] | pest or weed control at 200 ppm [5] | pest or weed control at 12.5 ppm [6] | pest or weed control at 200 ppm [7]

CCN(C(=O)c1ccc([N+](=O)[O-])cc1Cl)c1cccc(C(=O)Nc2c(Br)cc(C(F)(C(F)(F)F)C(F)(F)F)cc2OC(F)F)c1OC [Compound 135]
≥ 80%: pest or weed control at 200 ppm [1] | pest or weed control at 200 ppm [2] | pest or weed control at 200 ppm [3] | pest or weed control at 200 ppm [4] | pest or weed control at 200 ppm [5] | pest or weed control at 12.5 ppm [6] | pest or weed control at 200 ppm [7]

CCN(C(=O)c1ccc(F)cc1)c1cccc(C(=O)Nc2c(Br)cc(C(F)(C(F)(F)F)C(F)(F)F)cc2OC(F)F)c1OC [Compound 139]
≥ 80%: pest or weed control at 200 ppm [1] | pest or weed control at 200 ppm [2] | pest or weed control at 200 ppm [3] | pest or weed control at 200 ppm [4] | pest or weed control at 200 ppm [5] | pest or weed control at 12.5 ppm [6] | pest or weed control at 200 ppm [7]

CCN(C(=O)c1ccc(F)cc1Cl)c1cccc(C(=O)Nc2c(Br)cc(C(F)(C(F)(F)F)C(F)(F)F)cc2OC(F)F)c1OC [Compound 141]
≥ 80%: pest or weed control at 200 ppm [1] | pest or weed control at 200 ppm [2] | pest or weed control at 200 ppm [3] | pest or weed control at 200 ppm [4] | pest or weed control at 200 ppm [5] | pest or weed control at 12.5 ppm [6] | pest or weed control at 200 ppm [7]

CCN(C(=O)c1ccc(F)cc1)c1cccc(C(=O)Nc2c(Cl)cc(C(F)(C(F)(F)F)C(F)(F)F)cc2OC(F)F)c1OC [Compound 156]
≥ 80%: pest or weed control at 200 ppm [1] | pest or weed control at 200 ppm [2] | pest or weed control at 200 ppm [3] | pest or weed control at 200 ppm [4] | pest or weed control at 200 ppm [5] | pest or weed control at 12.5 ppm [6] | pest or weed control at 200 ppm [7]

CCN(C(=O)c1ccc(F)cc1Cl)c1cccc(C(=O)Nc2c(Cl)cc(C(F)(C(F)(F)F)C(F)(F)F)cc2OC(F)F)c1OC [Compound 158]
≥ 80%: pest or weed control at 200 ppm [1] | pest or weed control at 200 ppm [2] | pest or weed control at 200 ppm [3] | pest or weed control at 200 ppm [4] | pest or weed control at 200 ppm [5] | pest or weed control at 12.5 ppm [6] | pest or weed control at 200 ppm [7]

CCN(C(=O)c1ccc([N+](=O)[O-])cc1)c1cccc(C(=O)Nc2c(Br)cc(C(F)(C(F)(F)F)C(F)(F)F)cc2OC(F)F)c1OC [Compound 162]
≥ 80%: pest or weed control at 200 ppm [1] | pest or weed control at 200 ppm [2] | pest or weed control at 200 ppm [3] | pest or weed control at 200 ppm [4] | pest or weed control at 200 ppm [5] | pest or weed control at 12.5 ppm [6] | pest or weed control at 200 ppm [7]
